Data published in US20240415801A1, “Methods and Compositions for Treating Fibroids” (Lundquist Institute for Biomedical Innovation at …, priority 2023, published 2024).

Key:
human fibroid xenograft = assay: Human fibroid xenograft mouse model, tumor weight (Example 1); type: in vivo, ovariectomized CB-17 SCID/Beige mice; conditions: 20 mg/kg daily i.p., two months (8 weeks), vs matched vehicle
Description: Portions of intramural uterine fibroids (2-5 cm diameter) were obtained from hysterectomies performed at Harbor-UCLA Medical Center for symptomatic fibroids (n=10). Prior approval was secured from the Institutional Review Board (18CR-31752-01 R) at the Lundquist Institute. Tissues were exclusively sourced from premenopausal patients who had not been treated with hormonal medications for at least 3 months before surgery. The fibroids used in this study were sourced from African American (n=2) and Hispanic (n=8) women aged between 35-50 years (mean 43±4.8 years). The MED12 mutation status of all fibroids was determined by PCR amplification and Sanger sequencing (Laragen Inc., Culver City, CA, USA). […] Informed consent was obtained from all participants. A segment of each tumor was allocated for in vivo studies, and the remaining tissues were promptly snap-frozen and stored in liquid nitrogen for further analysis as previously described. This selection process for tumors was aimed at minimizing variance among fibroids.

[1] = Blood chemistry panel (Example 1); type: in vivo, SCID/Beige mice; conditions: 20 mg/kg daily i.p.
Procedure: After 8 weeks of treatment with either the vehicle or Bay, plasma chemistry was analyzed. Specifically, 100 μL of plasma was transferred into the Comprehensive Diagnostic Profile Rotor (#500-1038, Abaxis, Union City, CA, USA). Subsequently, the levels of glucose, creatinine, BUN, phosphorus, sodium, albumin, alkaline phosphatase, serum glutamic pyruvic transaminase (SGPT; ALT), total protein, globulin, total bilirubin, and amylase were assessed using the VetScan VS2 chemistry analyzer (Abaxis, Union City, CA, USA) as previously described.

human fibroid explants = assay: Fibroid explant culture, qRT-PCR; type: cell-based; conditions: 5 μM, 48 hours
Procedure: Quantitative RT-PCR was performed as previously described. Selected gene expression levels were assessed utilizing the Invitrogen StepOne System, with normalization against 18S. Triplicate reactions were conducted, and relative mRNA expression was calculated using the comparative cycle threshold method (2−ΔΔCt), with results presented as fold change relative to the control group. The primer sequences used are shown in the following Sequence Table:
Equal weights of fibroid explants, aseptically cut from the same patient, were plated in 6-well plates containing complete medium. They were then incubated for 48 hours with either vehicle or Bay (5 μM).

fibroid xenografts = assay: Xenograft mouse fibroid model, tumor weight (Example 2); type: in vivo, ovariectomized CB-17 SCID/Beige mice; conditions: 5 mg/kg i.p. (every other day / three times per week), two months, vs matched controls
Description: Portions of uterine fibroids (intramural, 2-5 cm in diameters) (n=13) were obtained from patients at Harbor-UCLA Medical Center. Prior approval from the Institutional Review Board (18CR-31752-01 R) at the Lundquist Institute was obtained. Informed consent was obtained from all the patients participating in the study who were not taking any hormonal medications for at least 3 months prior to surgery. The fibroids used in this study were from African Americans (n=3), Hispanics (n=9) and Asians (n=1) women aged 35-57 years (mean 46±6.5 years). The MED12 mutation status of all fibroids was determined by PCR amplification and Sanger sequencing (Laragen Inc. Culver City, CA). […] The missense mutations in exon 2 included c.130G>A (p.Gly44Ser) (n=4), c.131 G>A (p.Gly44Asp) (n=2) and c.131 G>T (p.Gly44Val) (n=1). The tissues were snap frozen and stored in liquid nitrogen for further analysis as previously described (2, 3).
Portions of liver, kidney, heart were dissected and frozen.

[2] = tested on: primary fibroid smooth muscle cells; conditions: refs [10, 93]; cited from earlier work
[3] = Tolerability and body weight of xenograft mice (Example 2); conditions: 5 mg/kg/three times per week
Procedure: 9-12-weeks-old female ovariectomized SCID/Beige mice (Charles River Laboratories) were implanted with pellets (Innovative Research of America) containing estradiol (0.05 mg/90 d release) and progesterone (25 mg/60 d release) as previously reported (4, 5). […] After two months of treatment animals were sacrificed, and blood was obtained by cardiac puncture.
Briefly, freshly obtained fibroids from hysterectomies was cut aseptically into small pieces (4-5-mm3 cubes) using a razor blade and weighed. Equal weights of the explants from the same patient were implanted in the flank of SCID mice. […] After two months of treatment animals were sacrificed, and blood was obtained by cardiac puncture.

Cc1ccc(S(=O)(=O)/C=C/C#N)cc1 [Bay 11-7082]
reduction of tumor weight (human fibroid xenograft): 50% | changes in blood chemistry including liver, kidney and pancreatic function ([1]; 8 weeks): no changes | Albumin (mean ± SEM) ([1]; plasma after 8 weeks): 3.5 ± 0.14 g/dL | Alkaline phosphatase (mean ± SEM) ([1]; plasma after 8 weeks): 91.9 ± 20.05 U/l | Amylase (mean ± SEM) ([1]; plasma after 8 weeks): 643.0 ± 36.82 U/l | BUN (mean ± SEM) ([1]; plasma after 8 weeks): 27.1 ± 5.75 mg/dL | Creatinine (mean ± SEM) ([1]; plasma after 8 weeks): 0.4 ± 0.03 mg/dL | Globulin (mean ± SEM) ([1]; plasma after 8 weeks): 1.1 ± 0.24 g/dL | Glucose (mean ± SEM) ([1]; plasma after 8 weeks): 261.0 ± 14.63 mg/dL | Phosphorus (mean ± SEM) ([1]; plasma after 8 weeks): 10.1 ± 0.53 mg/dL | SGPT (ALT) (mean ± SEM) ([1]; plasma after 8 weeks): 54.5 ± 8.71 U/l | Sodium (mean ± SEM) ([1]; plasma after 8 weeks): 155.3 ± 1.35 mEq/l | Total bilirubin (mean ± SEM) ([1]; plasma after 8 weeks): 0.3 ± 0.04 mg/dL | Total protein (mean ± SEM) ([1]; plasma after 8 weeks): 4.6 ± 0.16 g/dL | mRNA levels of TLR3, TLR6, MyD88, TNFα, ESR1, HTR1B, TNFRSF11A (human fibroid explants): without significant effects | mRNA levels of VEGFC, TDO2, TGFB3, LOX, E2F1, PRL, PGR, CKS2, SPARC, COL3A1, FN1, CCND1, IL8, IL6, IL1β (human fibroid explants): significant inhibition | expression of miR-29c and miR-200c (human fibroid explants; fibroid explants): significant increase | reduction in tumor weight (fibroid xenografts): 40% | expression of miR-29c and miR-200c [2]: induced | effect on body weight [3]: no significant effects | body weight ([3]; vehicle 26.16g±0.49): 25.42 g
